Measurements published in PubChem BioAssay AID651841 (Broad Institute, 2012).
Where “and” joins values, the source holds several entries; their conditions need not be identical. Identical values can stand only once. Calls of active or inactive are those of the source. No rule for the calls is given here.

System: CAI-1 sensor histidine kinase CqsS (Vibrio cholerae)
Test: CqsS sensor histidine kinase agonist dose response, Vibrio cholerae WN1103 delta luxQ, confirmatory (AID 651841)
Settings: V. cholerae WN1103 delta luxQ, luciferase light, 6 h; for activation: at 80 µM (top of the series)

CCn1nnnc1NCc1ccc(C(C)C)cc1
AC40: 5.01 nM and 45.1 nM

COc1ccc(CC(=O)NC2CCCC2)cc1
activation: 13% (inactive)

c1ccc(-n2nnnc2NCc2ccc(N3CCCC3)cc2)cc1
activation: 0.501% (inactive)

Cn1nnnc1NCc1ccc(N2CCCC2)cc1
AC40: 351 nM

CCn1nccc1/N=C/c1ccc(N2CCCC2)cc1
activation: 0.487% (inactive)

CS(=O)(=O)c1ccc(CC(=O)NC2CCCC2)cc1
activation: 0.008% (inactive)

CCCCn1nnnc1NCc1ccc(N2CCCC2)cc1
AC40: 2640 nM

CCn1nccc1NCc1ccc(N2CCCC2)cc1
activation: 0.149% (inactive)

Fc1ccc(Cn2nnnc2NCc2ccc(N3CCCC3)cc2)cc1
activation: 0.54% (inactive)

O=C(Cc1ccccc1C(F)(F)F)NC1CCCC1
activation: 0.044% (inactive)

O=C(Cc1cccc(OC(F)(F)F)c1)NC1CCCC1
activation: 2.18% (inactive)

CCn1nnnc1NCc1ccc(N2CCCCC2)cc1
AC40: 55.5 nM

CCCn1nnnc1NCc1ccc(N2CCCC2)cc1
AC40: 12.1 nM

O=C(Cc1ccccc1OC(F)(F)F)NC1CCCC1
activation: 0.045% (inactive)

CCC(CC)NC(=O)Cc1ccc(-c2ccccc2)cc1
AC40: 2200 nM

O=C(Cc1ccccc1Cl)NC1CCCC1
activation: 0.107% (inactive)

O=C(Cc1ccc(-c2ccccc2)cc1)NC1CCCC1
AC40: 212 nM and 313 nM

O=C(NCc1ccc(-c2ccccc2)cc1)C1CCCC1
activation: 3.17% (inactive)

O=C(Cc1ccccc1F)NC1CCCC1
activation: 0.603% (inactive)

CCn1nnnc1NCc1cccc(OC)c1
activation: 24.5% (inactive)

CCn1nnnc1CCc1ccc(N2CCCC2)cc1
AC40: 713 nM

CCn1nnc(NCc2ccc(C)cc2)n1
activation: 0.069% (inactive)

CCn1nnnc1NCc1ccc(N2CCCC2)cc1
AC40: 10.7 nM

O=C(Cc1cccc(F)c1)NC1CCCC1
activation: 0.377% (inactive)

Cc1ccc(Cn2nnnc2NCc2ccc(N3CCCC3)cc2)cc1
activation: 0.549% (inactive)

CCn1nnnc1NCc1cccc(N2CCCC2)c1
AC40: 51.2 nM

CCn1nnnc1NCc1ccccc1N1CCCC1
activation: 0.052% (inactive)

O=C(Cc1ccc(-c2ccccc2)cc1)NC1CCOCC1
AC40: 1200 nM

CCCn1nnnc1NCc1ccc(C(C)C)cc1
AC40: 319 nM

CCc1ccccc1NCc1ccc(N2CCCC2)cc1
activation: 0.105% (inactive)

Cc1ccccc1CC(=O)NC1CCCC1
activation: 0.164% (inactive)

c1ccc(Cn2nnc(NCc3ccc(N4CCCC4)cc3)n2)cc1
activation: 0.159% (inactive)

O=C(Cc1ccc(-c2ccccc2)cc1)NC1CCC1
AC40: 280 nM

O=C(Cc1ccc(-c2ccccc2)cc1)NC1CCCCC1
AC40: 8980 nM

CCCn1nnnc1NCc1ccccc1Cl
activation: 0.104% (inactive)

c1ccc(Cn2nnnc2NCc2ccc(N3CCCC3)cc2)cc1
activation: 0.279% (inactive)

CCn1nnc(CCc2ccc(N3CCCC3)cc2)n1
activation: 0.131% (inactive)

CCC(C)NC(=O)Cc1ccc(-c2ccccc2)cc1 (stereo not given)
AC40: 2060 nM

CC(C)c1ccc(CNc2nnnn2C)cc1
AC40: 577 nM

CC(C)NC(=O)Cc1ccc(-c2ccccc2)cc1
AC40: 2500 nM
